In US8636979B2, “TLR 4 and 9 receptors agonists for preventing septic complications of post-traumatic immunodepression in patients hospitalized for severe traumatic injuries” (Chu Nantes, priority 2009, dated 2014):

System: methicillin-sensitive Staphyloccocus aureus (MSSA) pneumonia after haemorrhagic shock
Assay: Mortality from MSSA pneumonia after haemorrhagic shock (post-haemorrhagic SI model)
Type: in vivo
Details: Balb/cJ mice; i.v. injection immediately after resuscitation from haemorrhagic shock; 7×10^6 CFU MSSA 24 h later; survival followed 7 days
Protocol: An intra-venous injection of CpG-ODN 1668 (100 μl to […]) (HP-CpG group) or the same volume of isotonic saline solution (HP group) was given immediately after resuscitation from haemorrhagic shock. Twenty-four hours later the mice were inoculated with 7×10^6 CFU of MSSA. The survival rate of each group was measured twice a day for 7 days (168 hours). Each group comprised 8 animals. Data are given as a percentage and are representative of three independent experiments each having the same statistical significance (*p≦0.05). HP Group (black diamonds), HP-CpG group (blank squares).
Male Balb/cJ mice (20-24 grams) were obtained from the Janvier breeding company (Laval, France). Mice were kept on a day/night cycle of 12 hours with free access to food and drink. […]
A strain of methicillin-sensitive Staphyloccocus aureus or <<MSSA>> (ATCC strain 29213) was cultured 16 hours at 37° C. in a tryptic soy medium (Grosseron, Saint Herblain, France). […] The bacterial concentration was systematically controlled by quantitative culture. […]
Mortality was assessed twice a day for 7 days. […] Capillary glycaemia was measured using a haemaglucotest (Boehringer Ingelheim France), Venous blood gasometry, reflecting shock intensity and quality of resuscitation, was measured on central venous blood taken from the right atrium.

monophosphoryl lipid A [MPLA] was tested, and the “mortality in post-haemorrhagic SI model with MSSA pneumonia” value was “significantly lowered mortality”.
